From patent US20250248922A1, “METHOD OF PREPARING A MASTOCARPUS STELLATUS EXTRACT” (GIVAUDAN SA, priority 2022, published 2025)

Tested on: human mature adipocytes
Assay: Lipolytic activity: glycerol release by 3D culture of human mature adipocytes
Assay type: cell-based
Settings: 72 h of treatment, extract 0.5%
Method: Mature adipocytes were isolated from subcutaneous adipose tissue after digestion by collagenase. The isolated adipocytes were washed with a wash buffer and encapsulated in a peptidic hydrogel to form 3D adipocytes capsules of 25 μl in size. The formation of adipocytes capsules followed an internal standardized protocol to have about the same number of adipocytes between the capsules. Cells were then incubated for 24 h at 37° C. for stabilization. Treatments with Mastocarpus stellatus extract at 0.5% were initiated at D0 with a medium change; and the culture media were changed every day until 4 days of culture. At each culture media change, the cells secretions were collected, centrifuged and frozen at-80° C. for further analysis. Each culture condition was done in triplicate. The culture media after 72 h of treatment were collected. The concentrations of adiponectin and glycerol were evaluated by ELISA and colorimetric assays, respectively, using specific kits according to the manufacture's recommendations (adiponectin kit, Duoset, DY1065, R&D Systems; Glycerol kit, Randox, GY105).

CC(C)NCC(O)c1ccc(O)c(O)c1 (centres unmarked) [Isoproterenol]
Glycerol release (% of untreated), average (isoproterenol 1 μM (positive control)): 295.6 % of untreated
increase of glycerol release (isoproterenol 1 μM, vs untreated): +196%
